The source of these data is patent US12441703B2, “Carboxamides as modulators of sodium channels” (VERTEX PHARMACEUTICALS INCORPORATED, priority 2019, dated 2025).

Sequence of human NaV 1.8 (Q9Y5Y9 whole entry, looked up, the tested form may be a part): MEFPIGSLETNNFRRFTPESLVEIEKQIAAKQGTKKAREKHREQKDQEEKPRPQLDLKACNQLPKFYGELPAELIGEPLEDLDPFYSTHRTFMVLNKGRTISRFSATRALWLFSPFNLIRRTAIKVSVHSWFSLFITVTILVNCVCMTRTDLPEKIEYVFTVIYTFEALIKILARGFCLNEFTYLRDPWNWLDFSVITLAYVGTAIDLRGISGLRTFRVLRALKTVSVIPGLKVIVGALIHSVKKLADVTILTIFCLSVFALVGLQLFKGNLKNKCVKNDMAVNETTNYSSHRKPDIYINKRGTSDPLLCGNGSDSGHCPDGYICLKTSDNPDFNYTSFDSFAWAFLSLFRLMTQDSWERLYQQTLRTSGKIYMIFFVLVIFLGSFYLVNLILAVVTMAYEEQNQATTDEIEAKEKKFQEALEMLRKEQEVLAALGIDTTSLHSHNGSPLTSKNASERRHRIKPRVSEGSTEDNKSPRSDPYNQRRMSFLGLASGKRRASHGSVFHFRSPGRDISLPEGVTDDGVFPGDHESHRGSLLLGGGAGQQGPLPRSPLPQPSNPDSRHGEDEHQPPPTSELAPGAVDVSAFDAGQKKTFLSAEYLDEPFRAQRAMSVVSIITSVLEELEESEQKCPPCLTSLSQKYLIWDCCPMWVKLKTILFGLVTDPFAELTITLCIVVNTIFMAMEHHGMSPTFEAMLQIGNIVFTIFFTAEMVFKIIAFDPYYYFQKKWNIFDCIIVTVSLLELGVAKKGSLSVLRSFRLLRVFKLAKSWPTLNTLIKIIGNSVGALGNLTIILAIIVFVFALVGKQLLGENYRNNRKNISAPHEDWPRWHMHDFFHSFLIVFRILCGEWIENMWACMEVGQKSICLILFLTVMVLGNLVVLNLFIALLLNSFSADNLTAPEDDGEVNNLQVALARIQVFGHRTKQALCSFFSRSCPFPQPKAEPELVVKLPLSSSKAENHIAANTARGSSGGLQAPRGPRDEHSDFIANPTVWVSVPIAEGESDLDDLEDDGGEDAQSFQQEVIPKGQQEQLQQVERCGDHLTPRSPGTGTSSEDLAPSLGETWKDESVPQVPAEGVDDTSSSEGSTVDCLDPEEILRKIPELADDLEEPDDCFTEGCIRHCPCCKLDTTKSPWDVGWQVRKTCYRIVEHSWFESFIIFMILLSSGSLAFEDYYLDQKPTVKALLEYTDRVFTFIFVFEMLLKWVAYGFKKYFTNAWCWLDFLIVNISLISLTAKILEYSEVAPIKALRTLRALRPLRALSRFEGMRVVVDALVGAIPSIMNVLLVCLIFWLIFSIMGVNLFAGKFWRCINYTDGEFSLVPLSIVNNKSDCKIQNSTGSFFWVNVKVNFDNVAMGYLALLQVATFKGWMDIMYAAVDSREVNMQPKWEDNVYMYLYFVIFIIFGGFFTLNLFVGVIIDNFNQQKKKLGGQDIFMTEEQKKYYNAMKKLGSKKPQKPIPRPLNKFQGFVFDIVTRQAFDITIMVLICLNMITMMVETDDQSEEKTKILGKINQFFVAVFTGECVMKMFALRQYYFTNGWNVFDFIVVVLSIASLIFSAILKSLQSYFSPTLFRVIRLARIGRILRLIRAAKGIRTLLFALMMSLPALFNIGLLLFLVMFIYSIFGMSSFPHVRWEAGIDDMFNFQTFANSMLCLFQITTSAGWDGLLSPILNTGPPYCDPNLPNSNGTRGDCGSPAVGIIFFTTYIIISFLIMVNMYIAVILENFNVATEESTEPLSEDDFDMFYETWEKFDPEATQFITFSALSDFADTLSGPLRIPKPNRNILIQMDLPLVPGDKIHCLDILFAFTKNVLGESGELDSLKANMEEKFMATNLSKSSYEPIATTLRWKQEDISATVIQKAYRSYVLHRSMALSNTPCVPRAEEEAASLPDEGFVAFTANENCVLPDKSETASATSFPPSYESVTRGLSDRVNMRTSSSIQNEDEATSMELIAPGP

The first test concerns the target human NaV 1.8 (Homo sapiens, UniProt Q9Y5Y9). Description: E-VIPR assay for detecting and measuring NaV inhibition properties. The conditions noted are these: E-VIPR assay conducted in the absence of human serum (compounds marked *); HEK cells expressing truncated human NaV 1.8; read-out: IC50. The test is classed as cell-based. The gist of the method:
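Membrane-potential (coumarin/oxonol) readout after 10 s of 10 Hz biphasic electrical stimulation on E-VIPR. Compounds: 11-point 3-fold dilutions, […], 0.625% DMSO, 30 min at room temperature, human serum optional. Cells: HEK expressing truncated human NaV1.8 co-transduced with KIR2.1.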
Take `COc1cc(OC(F)(F)F)ccc1Oc1cc(OC)c(C)c(Cl)c1C(=O)Nc1ccnc(C(N)=O)c1` [Compound 363, 4-[[2-chloro-4-methoxy-6-[2-methoxy-4-(trifluoromethoxy)phenoxy]-3-methyl-benzoyl]amino]pyridine-2-carboxamide]: the half-inhibitory concentration (IC50) was 3 nM.

As for `Cc1nc(C(C)(C)C)cc(Oc2ccc(F)cc2Cl)c1C(=O)Nc1ccnc(C(N)=O)c1` [Compound 364, 6-tert-butyl-N-(2-carbamoyl-4-pyridyl)-4-(2-chloro-4-fluoro-phenoxy)-2-methyl-pyridine-3-carboxamide], the IC50 was determined as 46 nM.

On to `COc1cc(Oc2ccc(F)cc2Cl)c(C(=O)Nc2cnc(C(N)=O)nc2)c(F)c1C(F)(F)F` [Compound 366, 5-[[6-(2-chloro-4-fluoro-phenoxy)-2-fluoro-4-methoxy-3-(trifluoromethyl)benzoyl]amino]pyrimidine-2-carboxamide], for which the IC50 amounted to 13 nM.

In the case of `COc1c(C(F)(F)F)cc(Oc2ccc(F)cc2Cl)c(C(=O)Nc2cc(C(N)=O)ncc2C)c1F` [Compound 382, 4-(6-(2-Chloro-4-Fluorophenoxy)-2-Fluoro-3-Methoxy-4-(Trifluoromethyl)Benzamido)-5-Methylpicolinamide], the IC50 was determined as 5 nM.

The test is the same for the next values; noted with them: E-VIPR assay conducted in the presence of human serum; HEK cells expressing truncated human NaV 1.8; read-out: IC50.
`COc1cc(Oc2ccc(F)cc2Cl)c(C(=O)Nc2ccnc(C(N)=O)c2)c(F)c1C(F)(F)F` [Compound 365, 4-[[6-(2-chloro-4-fluoro-phenoxy)-2-fluoro-4-methoxy-3-(trifluoromethyl)benzoyl]amino]pyridine-2-carboxamide]: the 50% inhibitory concentration (IC50) stood at 50 nM.

As to `COc1cc(Oc2ccc(F)cc2Cl)c(C(=O)Nc2ccc(C(N)=O)nc2)c(F)c1C(F)(F)F` [Compound 367, 5-[[6-(2-chloro-4-fluoro-phenoxy)-2-fluoro-4-methoxy-3-(trifluoromethyl)benzoyl]amino]pyridine-2-carboxamide], the IC50 turned out to be 330 nM.

Consider `COc1cc(Oc2ccc(OC(F)(F)F)cc2Cl)c(C(=O)Nc2ccnc(C(N)=O)c2)c(F)c1C(F)(F)F` [Compound 368, 4-[[6-[2-Chloro-4-(Trifluoromethoxy)Phenoxy]-2-Fluoro-4-Methoxy-3-(Trifluoromethyl)Benzoyl]Amino]Pyridine-2-Carboxamide], for which the concentration for half-maximal inhibition (IC50) came out at 5 nM.

For `COc1cc(Oc2ccc(OC(F)(F)F)cc2Cl)c(C(=O)Nc2cnc(C(N)=O)nc2)c(F)c1C(F)(F)F` [Compound 369, 5-[[6-[2-chloro-4-(trifluoromethoxy)phenoxy]-2-fluoro-4-methoxy-3-(trifluoromethyl)benzoyl]amino]pyrimidine-2-carboxamide], the IC50 was 9 nM.

`COc1cc(Oc2ccc(OC(F)(F)F)cc2Cl)c(C(=O)Nc2ccc(C(N)=O)nc2)c(F)c1C(F)(F)F` [Compound 370, 5-[[6-[2-chloro-4-(trifluoromethoxy)phenoxy]-2-fluoro-4-methoxy-3-(trifluoromethyl)benzoyl]amino]pyridine-2-carboxamide]: the IC50 turned out to be 43 nM.

For the compound `COc1cc(Oc2ccc(F)c(F)c2OC)c(C(=O)Nc2ccnc(C(N)=O)c2)c(F)c1C` [Compound 372, 4-[[6-(3,4-difluoro-2-methoxy-phenoxy)-2-fluoro-4-methoxy-3-methyl-benzoyl]amino]pyridine-2-carboxamide], the IC50 was found to be 12 nM.

For `COc1c(Oc2cc(Cl)c(C)c(F)c2C(=O)Nc2ccnc(C(N)=O)c2)ccc(F)c1F` [Compound 373, 4-[[4-chloro-6-(3,4-difluoro-2-methoxy-phenoxy)-2-fluoro-3-methyl-benzoyl]amino]pyridine-2-carboxamide], the IC50 stood at 6 nM.

For `COc1c(Oc2ccc(OC3CC3)c(F)c2C(=O)Nc2ccnc(C(N)=O)c2)ccc(F)c1F` [Compound 374, 4-[[3-(cyclopropoxy)-6-(3,4-difluoro-2-methoxy-phenoxy)-2-fluoro-benzoyl]amino]pyridine-2-carboxamide], the half-inhibitory concentration (IC50) stood at 34 nM.

As for `COc1c(Oc2cnc(C(F)(F)F)c(C)c2C(=O)Nc2ccnc(C(N)=O)c2)ccc(F)c1F` [Compound 375, N-(2-carbamoyl-4-pyridyl)-5-(3,4-difluoro-2-methoxy-phenoxy)-3-methyl-2-(trifluoromethyl)pyridine-4-carboxamide], the IC50 stood at 29 nM.

On to `COc1c(Oc2cc(C(F)(F)F)c(OC)c(F)c2C(=O)Nc2cc(C(N)=O)ncc2C)ccc(F)c1F` [Compound 376, 4-[[6-(3,4-difluoro-2-methoxy-phenoxy)-2-fluoro-3-methoxy-4-(trifluoromethyl)benzoyl]amino]-5-methyl-pyridine-2-carboxamide], for which the concentration for half-maximal inhibition (IC50) was determined as 9 nM.

Regarding `COc1c(Oc2cc(C(F)(F)F)c(OC)c(F)c2C(=O)Nc2ccc(C(N)=O)nc2)ccc(F)c1F` [Compound 377, 5-[[6-(3,4-difluoro-2-methoxy-phenoxy)-2-fluoro-3-methoxy-4-(trifluoromethyl)benzoyl]amino]pyridine-2-carboxamide], the IC50 stood at 21 nM.

For the compound `COc1cc(Oc2ccc(F)c(F)c2OC)c(C(=O)Nc2cnc(C(N)=O)nc2)c(F)c1C(F)(F)F` [Compound 380, 5-[[6-(3,4-difluoro-2-methoxy-phenoxy)-2-fluoro-4-methoxy-3-(trifluoromethyl)benzoyl]amino]pyrimidine-2-carboxamide], the IC50 was determined as 26 nM.

Consider `COc1cc(Oc2ccc(F)c(F)c2OC)c(C(=O)Nc2ccc(C(N)=O)nc2)c(F)c1C(F)(F)F` [Compound 381, 5-[[6-(3,4-difluoro-2-methoxy-phenoxy)-2-fluoro-4-methoxy-3-(trifluoromethyl)benzoyl]amino]pyridine-2-carboxamide], for which the half-inhibitory concentration (IC50) worked out at 16 nM.

Consider `COc1cc(OC(F)(F)F)ccc1Oc1ccc(C(F)(F)F)c(O)c1C(=O)Nc1ccnc(C(N)=O)c1` [Compound 383, 4-[[2-hydroxy-6-[2-methoxy-4-(trifluoromethoxy)phenoxy]-3-(trifluoromethyl)benzoyl]amino]pyridine-2-carboxamide], for which the 50% inhibitory concentration (IC50) was > 3000 nM.

In the case of `[2H]C([2H])([2H])Oc1cc(OC(F)(F)F)ccc1Oc1cc(C2=CCCCC2)cc(F)c1C(=O)Nc1ccnc(C(N)=O)c1` [Compound 1001, 4-[[4-(cyclohexen-1-yl)-2-fluoro-6-[2-(trideuteriomethoxy)-4-(trifluoromethoxy)phenoxy]benzoyl]amino]pyridine-2-carboxamide], the half-maximal inhibitory concentration (IC50) stood at 19 nM.

With `[2H]C([2H])([2H])Oc1cc(OC(F)(F)F)ccc1Oc1cc(C2=COCCC2)cc(F)c1C(=O)Nc1ccnc(C(N)=O)c1` [Compound 1002, 4-[[4-(3,4-dihydro-2H-pyran-5-yl)-2-fluoro-6-[2-(trideuteriomethoxy)-4-(trifluoromethoxy)phenoxy]benzoyl]amino]pyridine-2-carboxamide], the IC50 came out at 30 nM.

Turning to `[2H]C([2H])([2H])Oc1cc(OC(F)(F)F)ccc1Oc1cc(C2=CCC(F)(F)CC2)cc(F)c1C(=O)Nc1ccnc(C(N)=O)c1` [Compound 1003, 4-[[4-(4,4-difluorocyclohexen-1-yl)-2-fluoro-6-[2-(trideuteriomethoxy)-4-(trifluoromethoxy)phenoxy]benzoyl]amino]pyridine-2-carboxamide], the IC50 was determined as 26 nM.

Turning to `[2H]C([2H])([2H])Oc1cc(OC(F)(F)F)ccc1Oc1cc(C2=CCOC2)cc(F)c1C(=O)Nc1ccnc(C(N)=O)c1` [Compound 1004, 4-[[4-(2,5-dihydrofuran-3-yl)-2-fluoro-6-[2-(trideuteriomethoxy)-4-(trifluoromethoxy)phenoxy]benzoyl]amino]pyridine-2-carboxamide], the half-maximal inhibitory concentration (IC50) was 29 nM.

Consider `[2H]C([2H])([2H])Oc1cc(OC(F)(F)F)ccc1Oc1cc(C2=CCOCC2)cc(F)c1C(=O)Nc1ccnc(C(N)=O)c1` [Compound 1005, 4-[[4-(3,6-dihydro-2H-pyran-4-yl)-2-fluoro-6-[2-(trideuteriomethoxy)-4-(trifluoromethoxy)phenoxy]benzoyl]amino]pyridine-2-carboxamide], for which the half-maximal inhibitory concentration (IC50) is 120 nM.

For `[2H]C([2H])([2H])Oc1cc(OC(F)(F)F)ccc1Oc1cc(-c2ccccc2C(N)=O)cc(F)c1C(=O)Nc1ccnc(C(N)=O)c1` [Compound 1006, 4-[[4-(2-carbamoylphenyl)-2-fluoro-6-[2-(trideuteriomethoxy)-4-(trifluoromethoxy)phenoxy]benzoyl]amino]pyridine-2-carboxamide], the half-maximal inhibitory concentration (IC50) was > 3000 nM.

As for `[2H]C([2H])([2H])Oc1cc(OC(F)(F)F)ccc1Oc1cc(-c2ccc(OC)cc2)cc(F)c1C(=O)Nc1ccnc(C(N)=O)c1` [Compound 1007, 4-[[2-fluoro-4-(4-methoxyphenyl)-6-[2-(trideuteriomethoxy)-4-(trifluoromethoxy)phenoxy]benzoyl]amino]pyridine-2-carboxamide], the IC50 turned out to be 170 nM.

Regarding `[2H]C([2H])([2H])Oc1cc(OC(F)(F)F)ccc1Oc1cc(C2=COCC2)cc(F)c1C(=O)Nc1ccnc(C(N)=O)c1` [Compound 1008, 4-[[4-(2,3-dihydrofuran-4-yl)-2-fluoro-6-[2-(trideuteriomethoxy)-4-(trifluoromethoxy)phenoxy]benzoyl]amino]pyridine-2-carboxamide], the half-maximal inhibitory concentration (IC50) turned out to be 21 nM.

Take `[2H]C([2H])([2H])Oc1cc(OC(F)(F)F)ccc1Oc1cc(C2=CCC(OC)CC2)cc(F)c1C(=O)Nc1ccnc(C(N)=O)c1` (stereo not shown) [Compound 1009, 4-[[2-fluoro-4-(4-methoxycyclohexen-1-yl)-6-[2-(trideuteriomethoxy)-4-(trifluoromethoxy)phenoxy]benzoyl]amino]pyridine-2-carboxamide]: the half-maximal inhibitory concentration (IC50) came out at 170 nM.

On to `[2H]C([2H])([2H])Oc1cc(OC(F)(F)F)ccc1Oc1cc(C2=CCCC2)cc(F)c1C(=O)Nc1ccnc(C(N)=O)c1` [Compound 1010, 4-[[4-(cyclopenten-1-yl)-2-fluoro-6-[2-(trideuteriomethoxy)-4-(trifluoromethoxy)phenoxy]benzoyl]amino]pyridine-2-carboxamide], for which the IC50 was 13 nM.

One may read the IC50 as the midpoint of a concentration-inhibition curve.
